The record followed here is US20210315992A1, “ADJUVANT EFFECT OF THE TLR1/2 AGONIST DIPROVOCIM SYNERGIZES WITH CHECKPOINT-INHIBITING ANTIBODIES TO ELIMINATE DISEASE” (The Board of Regents of the University of Texas System, priority 2018, published 2021).

The subject of one data set is human THP-1 cells. In words: TNF production by PMA-differentiated human THP-1 cells (ELISA). Format: cell-based. The following applies: 4 hours. How it is done: For murine BMDCs, bone morrow cells were cultured in Petri dishes in 10 ml DMEM cell culture medium containing 10 ng/ml of murine GM-CSF (R&D Systems). On day 3 of culture, this was replaced with fresh GM-CSF medium. Loosely adherent cells were transferred to a fresh Petri dish and cultured for an additional 4 d. Human PBMC were purchased from Stemcell Technologies. THP-1 (ATCC) cells were differentiated by treatment with 100 nM PMA (Sigma) in RPMI cell culture medium [RPMI containing 10% vol/vol FBS (Gemini Bio Products), 1% penicillin and streptomycin (Life Technologies)] for 24 hours. After that, cells were washed with PBS and cultured in fresh RPMI cell culture medium for 24 hours before use in studies.
(§1) Cells were seeded onto 96-well plates at 1×10^5 cells per well and stimulated with a Diprovocim (dissolved in DMSO, and final DMSO concentrations (0.2%) were kept constant in all experiments) for 4 h. Mouse TNF, IL-6, or IFN-β, or human TNF in the supernatants were measured by ELISA kits according to the manufacturer's instructions (eBioscience and PBL Assay Science). Pretreatment with 20 μg/ml anti-TLR1, anti-TLR2 or isotype control antibody (eBioscience) was for 1 hour. Unless otherwise indicated, mouse cells were from wild type C57BL/6J mice.
A general note: In an ELISA, binding on a coated surface is turned into a signal by an enzyme label.

Data set [1] concerns mouse peritoneal macrophages. The experiment in a line: TNF production by mouse peritoneal macrophages (ELISA). Format: cell-based. The following applies: Peritoneal macrophage, 4 hours, read-out: EC50, dose-dependent TNF production. The procedure:
(§2) Thioglycollate-elicited macrophages were recovered 4 days after i.p. injection of 2 ml BBL thioglycollate medium, brewer modified (4% wt/vol; BD Biosciences) by peritoneal lavage with 5 ml phosphate buffered saline (PBS). The peritoneal macrophages were cultured in DMEM cell culture medium [DMEM containing 10% vol/vol FBS (Gemini Bio Products), 1% vol/vol penicillin and streptomycin (Life Technologies)] at 37° C. and 95% air/5% CO2.
as §1

The test system of data set [2] is mouse peritoneal macrophages. In words: IFN-β secretion by mouse peritoneal macrophages (ELISA). The class given is cell-based. The following applies: 4 hours. How it is done:
as §2, §1

Data set [3] deals with MAPK and canonical NF-κB signaling. In words: Western blotting of THP-1 cell lysates. The class given is cell-based, human. The following applies: THP-1 cells, 5 nM. The procedure: Mouse peritoneal macrophages or human THP-1 cells (1×10^6 per well) were stimulated in 12-well plates with a Diprovocim at 500 nM for mouse cells or 5 nM for human cells for the indicated times and lysed directly in sample buffer (Sigma). Cell lysates were separated by SDS-PAGE and transferred to nitrocellulose membranes. Membranes were probed with the following antibodies: phospho-IKKα (Ser176)/IKKβ (Ser177), IκBα, phospho-p38 (Thr180/Tyr182), phospho-JNK (Thr183/Tyr185), phospho-ERK1/2 (Thr202/Tyr204) (Cell Signaling Technology) and β-Actin (Sigma).
Background: Immunoblotting shows a protein as a band on a membrane.

In another data set the test system is B16-OVA melanoma. The experiment in a line: B16-OVA melanoma, pre-tumor treatment (immunization on day of tumor inoculation). Format: in vivo, mouse. The procedure: FIG. 4A through FIG. 4J illustrate inhibition of B16-OVA tumor growth by pre- or post-tumor treatment with Diprovocim-adjuvanted tumor vaccination and checkpoint blockade. FIG. 4A provides a schematic of pre- and post-tumor treatment protocols. C57BL/6J mice (n=8 mice per treatment) were injected s.c. with 2×10^5 B16-OVA melanoma cells on day 0. For pre-tumor treatment, mice were immunized i.m. with OVA (100 μg) mixed with vehicle or Diprovocim (10 mg/kg) or alum (2 mg/kg) on the same day prior to tumor injection. Mice received a booster immunization seven days later in which anti-PD-L1 (200 μg) was administered on days 3, 6 and 9 after tumor inoculation by i.p. injection. For post-tumor treatment, initial immunization was on day 3 after tumor inoculation, with a booster seven days later. Anti-PD-L1 (200 μg) was administered on days 3, 6, 9, 12, and 15 after tumor inoculation by i.p. injection. FIG. 4B through FIG. 4F illustrate pre-tumor treatment results. Tumor volume (FIG. 4B and FIG. 4D) and percent mouse survival (survivors/total mice) (FIG. 4C and FIG. 4E). […] FIG. 4G through FIG. 4J illustrate a comparison of pre-tumor (FIG. 4G and FIG. 4H) vs. post-tumor treatment (FIG. 4I and FIG. 4J). Tumor volume (FIG. 4G and FIG. 4I) and percent mouse survival (survivors/total mice) (FIG. 4H and FIG. 4J) are shown. P values for tumor volume analysis apply to the final time point as indicated in graphs and were calculated by Student's t test. P values for survival analysis were calculated by Kaplan-Meier analysis. All results are representative of two independent studies.
C57BL/6J mice (n=8) were injected s.c. with 2×10^5 B16-OVA melanoma cells on day 0. Anti-PD-L1 (200 μg) or mouse IgG2a isotype control antibody was administered on days 3, 6 and 9 after tumor inoculation by i.p. injection. FIG. 8A is a graph of tumor volume versus time and FIG. 8B is a graph showing percent mouse survival (survivors/total mice) versus time. The control values in both plots are shown above those for the anti-PD-L1 values where the two values diverge. […] Results are representative of two independent studies.
B16-OVA cells (B16F10 melanoma cells stably expressing chicken ovalbumin) were grown in DMEM containing 10% vol/vol FBS. A total of 2×10^5 B16-OVA cells in 100 μL PBS were injected s.c. into the right flank of 8-12 week old male C57BL/6J mice to establish tumors (n=8 mice per group). For pretreatment, 10 mg/kg Diprovocim-1 or 2 mg/kg alum with or without OVA (100 μg) was injected i.m. into mice on the same day as tumor inoculation (day 0). Mice received a booster shot seven days after the first immunization. On day 3, 6 and 9, some groups were injected i.p. with 200 μg checkpoint inhibitor (anti-mPD-L1, BioXcell) in 100 μl saline.
Tumors were measured with a digital caliper (Fisher) and the tumor sizes were calculated using the following formula: volume=0.5×length×width^2. Mice were sacrificed when the tumor length or width reached 2 cm.

The test system of another data set is mice. In words: In vivo adjuvant activity and toxicity in mice when co-injected with an immunogen. The following applies: compared with LPS administration.

“Also recorded” adds a separate entry of the source.

Usually EC50 stands for the midpoint of the concentration-response curve. For `O=C(N[C@H]1C[C@@H]1c1ccccc1)[C@@H]1CN(C(=O)c2ccc(C(=O)N3C[C@@H](C(=O)N[C@H]4C[C@@H]4c4ccccc4)[C@H](C(=O)N[C@H]4C[C@@H]4c4ccccc4)C3)cc2)C[C@H]1C(=O)N[C@H]1C[C@@H]1c1ccccc1` [Diprovocim-1, (3S,3'S,4S,4'S)-1,1′-Terephthaloylbis(N^3,N^4-bis((1S,2R)-2-phenylcyclo-propyl)pyrrolidine-3,4-dicarboxamide)], the EC50 with human THP-1 cells (Homo sapiens, THP-1 cells, read-out: EC50, dose-dependent TNF production) amounted to 0.11 nM; in data set [1], 1.3 nM. In addition, the “activation of TNF production compared with Pam3CSK4” value with human THP-1 cells (human THP-1 cells) is “more potent and efficacious; also recorded: more potent than Pam3CSK4”. The results for the “type I IFN (IFN-β) production” value in data set [2] and in data set [2] (listed as Diprovocim) were “failed to stimulate type I IFN production” and “does not stimulate IFN-β secretion”, respectively. Also, the “phosphorylation of signaling proteins and IκBα degradation” value in data set [3] was “induced phosphorylation of IκKα, IKKβ, p38, JNK, and ERK, as well as degradation of IκBα”. The “tumor growth or mouse survival” value with B16-OVA melanoma (Diprovocim alone (no OVA) combined with anti-PD-L1 treatment) is “no effect”. The “effect on tumor growth, survival rate, and survival time compared with alum” value with B16-OVA melanoma (pre-tumor treatment) is “superior to that of alum”. Also, the “tumor growth rates and survival times compared with vehicle alone” value in the data set with B16-OVA melanoma (single agent, no anti-PD-L1, i.m. day 0 and booster day 7) is “similar”. Besides, in the data set with mice, the “overt toxicity when used as an adjuvant” value is listed as “did not display the overt toxicity”.
